Results published in US12281122B1, “PI3K inhibitors” (Cogent Biosciences, Inc., priority 2023, dated 2025).

Tests used:
[1] = system: T47D (PI3Kα-H1047R) cell line; assay: HTRF phospho-AKT(S473) cell assay in T47D cells; type: cell-based, human
Method in brief: (§1)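 T47D: RPMI + 10% FBS + 0.2 units/mL insulin, top 5 μM. SKBR3: McCoy's 5A + 10% FBS, top 10 μM, 70 ng/ml PDGF-BB last 15 min. Both: 12-pt 1:3, 2 h, 37° C, max 0.5% DMSO; HTRF pAKT(S473); IC50.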

[2] = system: SKBR3 (PI3Kα-Wild Type) cell line; assay: HTRF phospho-AKT(S473) cell assay in SKBR3 cells; type: cell-based, human
Method in brief: as §1

[3] = Homo sapiens; HTRF phospho-AKT(S473), T47D (PI3Kα-H1047R) cells, 2 hours compound incubation
[4] = Homo sapiens, SK-BR-3; HTRF phospho-AKT(S473), SKBR3 (PI3Kα-Wild Type) cells, 2 hours compound incubation, PDGF-BB stimulated
[5] = Homo sapiens; T47D (PI3Kα-H1047R) cells, HTRF phospho-AKT(S473), 2 hours compound incubation
[6] = Homo sapiens, SK-BR-3; SKBR3 (PI3Kα-Wild Type) cells, HTRF phospho-AKT(S473), 2 hours compound incubation, PDGF-BB stimulated

Row | SMILES | IC50 [1, 3] [nM] | IC50 [2, 4] [nM] | IC50 [1, 5] [nM] | IC50 [2, 6] [nM]
1 | Cc1cc([C@@H](C)Nc2ccc(Cl)nc2C(=O)NS(C)(=O)=O)c2nc(N3CCC(c4nn(C(F)F)cc4F)CC3)n(C)c(=O)c2c1 [Compound 463, (R)-6-chloro-3-((1-(2-(4-(1-(difluoromethyl)-4-fluoro-1H-pyrazol-3-yl)piperidin-1-yl)-3,6-dimethyl-4-oxo-3,4-dihydroquinazolin-8-yl)ethyl)amino)-N-(methylsulfonyl) picolinamide] | 250 to 500 | ≥ 5000 |  | 
2 | Cc1cc([C@@H](C)Nc2ccc(Cl)nc2C(=O)NS(C)(=O)=O)c2nc(N3CCC(c4ccn(C)n4)CC3)n(C)c(=O)c2c1 [Compound 178, (R)-6-chloro-3-((1-(3,6-dimethyl-2-(4-(1-methyl-1H-pyrazol-3-yl)piperidin-1-yl)-4-oxo-3,4-dihydroquinazolin-8-yl)ethyl)amino)-N-(methylsulfonyl) picolinamide] |  |  | < 250 | 1000 to 5000
3 | Cc1cc([C@@H](C)Nc2ccc(Cl)nc2C(=O)NS(C)(=O)=O)c2nc(N3CCC(c4ccc(N(C)C)nc4)CC3)n(C)c(=O)c2c1 [Compound 242, (R)-6-chloro-3-((1-(2-(4-(6-(dimethylamino)pyridin-3-yl)piperidin-1-yl)-3,6-dimethyl-4-oxo-3,4-dihydroquinazolin-8-yl)ethyl)amino)-N-(methylsulfonyl) picolinamide] |  |  | < 250 | 1000 to 5000
4 | Cc1cc([C@@H](C)Nc2ccc(Cl)nc2C(=O)NS(C)(=O)=O)c2nc(-c3ccc4c(c3)C(=O)N(C)C4)n(C)c(=O)c2c1 [Compound 776, (R)-6-chloro-3-((1-(3,6-dimethyl-2-(2-methyl-3-oxoisoindolin-5-yl)-4-oxo-3,4-dihydroquinazolin-8-yl)ethyl)amino)-N-(methylsulfonyl) picolinamide] | 250 to 500 | 1000 to 5000 |  | 
5 | Cc1cc([C@@H](C)Nc2ccc(Cl)nc2C(=O)NS(C)(=O)=O)c2nc(N3CCC(c4ccn(C(C)C)n4)CC3)n(C)c(=O)c2c1 [Compound 249, (R)-6-chloro-3-((1-(2-(4-(1-isopropyl-1H-pyrazol-3-yl)piperidin-1-yl)-3,6-dimethyl-4-oxo-3,4-dihydroquinazolin-8-yl)ethyl)amino)-N-(methylsulfonyl) picolinamide] |  |  | < 250 | 1000 to 5000
6 | Cc1cc([C@@H](C)Nc2ccc(Cl)nc2C(=O)NS(C)(=O)=O)c2nc(N3CC[C@@H](Oc4ccc(F)cc4)C3)n(C)c(=O)c2c1 (relative stereo) [Compound 236, 6-chloro-3-(((R)-1-(2-((R*)-3-(4-fluorophenoxy)pyrrolidin-1-yl)-3,6-dimethyl-4-oxo-3,4-dihydroquinazolin-8-yl)ethyl)amino)-N-(methylsulfonyl) picolinamide] |  |  | 250 to 500 | 1000 to 5000
7 | Cc1cc([C@@H](C)Nc2ccc(Cl)nc2C(=O)NS(C)(=O)=O)c2nc(N3CCC(n4ccc(N(C)C)n4)CC3)n(C)c(=O)c2c1 [Compound 310, (R)-6-chloro-3-((1-(2-(4-(3-(dimethylamino)-1H-pyrazol-1-yl)piperidin-1-yl)-3,6-dimethyl-4-oxo-3,4-dihydroquinazolin-8-yl)ethyl)amino)-N-(methylsulfonyl) picolinamide] |  |  | < 250 | 1000 to 5000
8 | Cc1cc([C@@H](C)Nc2ccc(Cl)nc2C(=O)NS(C)(=O)=O)c2nc(N3[C@@H]4CC[C@H]3C[C@H](c3cnc(C)nc3)C4)n(C)c(=O)c2c1 [Compound 300, 6-chloro-3-(((R)-1-(3,6-dimethyl-2-((1R,3S,5S)-3-(2-methylpyrimidin-5-yl)-8-azabicyclo[3.2.1]octan-8-yl)-4-oxo-3,4-dihydroquinazolin-8-yl)ethyl)amino)-N-(methylsulfonyl) picolinamide] |  |  | < 250 | ≥ 5000
9 | Cc1cc([C@@H](C)Nc2ccc(Cl)nc2C(=O)NS(C)(=O)=O)c2nc(N3CCN(c4nn(C)cc4F)CC3)n(C)c(=O)c2c1 [Compound 450, (R)-6-chloro-3-((1-(2-(4-(4-fluoro-1-methyl-1H-pyrazol-3-yl)piperazin-1-yl)-3,6-dimethyl-4-oxo-3,4-dihydroquinazolin-8-yl)ethyl)amino)-N-(methylsulfonyl) picolinamide] | < 250 | ≥ 5000 |  | 
10 | Cc1cc([C@@H](C)Nc2ccc(Cl)nc2C(=O)NS(C)(=O)=O)c2nc(N3CCC(c4ncc(C(F)(F)F)cn4)CC3)n(C)c(=O)c2c1 [Compound 630, (R)-6-chloro-3-((1-(3,6-dimethyl-4-oxo-2-(4-(5-(trifluoromethyl)pyrimidin-2-yl)piperidin-1-yl)-3,4-dihydroquinazolin-8-yl)ethyl)amino)-N-(methylsulfonyl) picolinamide] | 500 to 1000 | ≥ 5000 |  | 
11 | Cc1cc([C@@H](C)Nc2ccc(Cl)nc2C(=O)NS(C)(=O)=O)c2nc(N3CCC(n4cc5ccccc5n4)CC3)n(C)c(=O)c2c1 [Compound 198, (R)-3-((1-(2-(4-(2H-indazol-2-yl)piperidin-1-yl)-3,6-dimethyl-4-oxo-3,4-dihydroquinazolin-8-yl)ethyl)amino)-6-chloro-N-(methylsulfonyl) picolinamide] |  |  | < 250 | 1000 to 5000
12 | CC(=O)N1CCN(c2ccc(-c3nc4c([C@@H](C)Nc5ccc(Cl)nc5C(=O)NS(C)(=O)=O)cc(C)cc4c(=O)n3C)cc2F)CC1 [Compound 778, (R)-3-((1-(2-(4-(4-acetylpiperazin-1-yl)-3-fluorophenyl)-3,6-dimethyl-4-oxo-3,4-dihydroquinazolin-8-yl)ethyl)amino)-6-chloro-N-(methylsulfonyl) picolinamide] | < 250 | 1000 to 5000 |  | 

The next lines start with the values.

Row | IC50 [1, 3] [nM] | IC50 [2, 4] [nM] | IC50 [1, 5] [nM] | IC50 [2, 6] [nM] | SMILES
13 | < 250 | ≥ 5000 |  |  | Cc1cc([C@@H](C)Nc2ccc(Cl)nc2C(=O)NS(C)(=O)=O)c2nc(N3CCC(c4nccc(C)n4)CC3)n(C)c(=O)c2c1 [Compound 468, (R)-6-chloro-3-((1-(3,6-dimethyl-2-(4-(4-methylpyrimidin-2-yl)piperidin-1-yl)-4-oxo-3,4-dihydroquinazolin-8-yl)ethyl)amino)-N-(methylsulfonyl) picolinamide]
14 | 250 to 500 | 1000 to 5000 |  |  | C[C@@H](Nc1ccc(Cl)nc1C(=O)NS(C)(=O)=O)c1cc(C(F)(F)F)cc2c(=O)n(C)c(N3C[C@@H]4[C@H](C3)[C@H]4c3ccn(C)n3)nc12 [Compound 452, 6-chloro-3-(((R)-1-(3-methyl-2-((1R,5S,6R)-6-(1-methyl-1H-pyrazol-3-yl)-3-azabicyclo[3.1.0]hexan-3-yl)-4-oxo-6-(trifluoromethyl)-3,4-dihydroquinazolin-8-yl)ethyl)amino)-N-(methylsulfonyl) picolinamide]
15 | < 250 | 1000 to 5000 |  |  | Cc1cc([C@@H](C)Nc2ccc(Cl)nc2C(=O)NS(C)(=O)=O)c2nc(N3C[C@@H]4[C@H](C3)[C@H]4c3noc(C)n3)n(C)c(=O)c2c1 [Compound 465, 6-chloro-3-(((R)-1-(3,6-dimethyl-2-((1R,5S,6R)-6-(5-methyl-1,2,4-oxadiazol-3-yl)-3-azabicyclo[3.1.0]hexan-3-yl)-4-oxo-3,4-dihydroquinazolin-8-yl)ethyl)amino)-N-(methylsulfonyl) picolinamide]
16 | 250 to 500 | 1000 to 5000 |  |  | Cc1cc([C@@H](C)Nc2ccc(Cl)nc2C(=O)NS(C)(=O)=O)c2nc(N3C[C@@H]4[C@H](C3)[C@H]4c3csc(C)n3)n(C)c(=O)c2c1 [Compound 476, 6-chloro-3-(((R)-1-(3,6-dimethyl-2-((1R,5S,6R)-6-(2-methylthiazol-4-yl)-3-azabicyclo[3.1.0]hexan-3-yl)-4-oxo-3,4-dihydroquinazolin-8-yl)ethyl)amino)-N-(methylsulfonyl) picolinamide]
17 |  |  | 250 to 500 | 1000 to 5000 | Cc1cc([C@@H](C)Nc2ccc(Cl)nc2C(=O)NS(C)(=O)=O)c2nc(N3C[C@@H]4[C@H](C3)[C@H]4c3ccn(C)n3)n(C3CC3)c(=O)c2c1 [Compound 419, 6-chloro-3-(((R)-1-(3-cyclopropyl-6-methyl-2-((1R,5S,6R)-6-(1-methyl-1H-pyrazol-3-yl)-3-azabicyclo[3.1.0]hexan-3-yl)-4-oxo-3,4-dihydroquinazolin-8-yl)ethyl)amino)-N-(methylsulfonyl) picolinamide]
18 | 250 to 500 | 1000 to 5000 |  |  | Cc1cc([C@@H](C)Nc2ccc(Cl)nc2C(=O)NS(C)(=O)=O)c2nc(N3CCn4nccc4C3)n(C)c(=O)c2c1 [Compound 765, (R)-6-chloro-3-((1-(2-(6,7-dihydropyrazolo[1,5-a]pyrazin-5(4H)-yl)-3,6-dimethyl-4-oxo-3,4-dihydroquinazolin-8-yl)ethyl)amino)-N-(methylsulfonyl) picolinamide]
19 | 250 to 500 | ≥ 5000 |  |  | Cc1cc([C@@H](C)Nc2ccc(Cl)nc2C(=O)NS(C)(=O)=O)c2nc(N3C[C@H]4C[C@@]4(c4cnc(C)nc4)C3)n(C)c(=O)c2c1 (relative stereo) [Compound 751, 6-chloro-3-(((R)-1-(3,6-dimethyl-2-((1R*,5S*)-1-(2-methylpyrimidin-5-yl)-3-azabicyclo[3.1.0]hexan-3-yl)-4-oxo-3,4-dihydroquinazolin-8-yl)ethyl)amino)-N-(methylsulfonyl) picolinamide]
20 | < 250 | ≥ 5000 |  |  | Cc1ccn([C@H]2[C@@H]3CN(c4nc5c([C@@H](C)Nc6ccc(Cl)nc6C(=O)NS(C)(=O)=O)cc(C)cc5c(=O)n4C)C[C@@H]32)c(=O)c1 [Compound 754, 6-chloro-3-(((R)-1-(3,6-dimethyl-2-((1R,5S,6S)-6-(4-methyl-2-oxopyridin-1(2H)-yl)-3-azabicyclo[3.1.0]hexan-3-yl)-4-oxo-3,4-dihydroquinazolin-8-yl)ethyl)amino)-N-(methylsulfonyl) picolinamide]
